Calls of active or inactive are those of the source. The calls are words filed in the database; no cut-off is given here.
Assays:
Lactococcus lactis [1] = assay: Growth inhibition of nisin-sensitive Lactococcus lactis NZ9000Cm incubated for 5 hrs by optical density based plate reader assay; format: functional, organism-based
Lactococcus lactis [2] = assay: Induction of pore formation in Lactococcus lactis NZ9000Cm assessed as increase in florescence intensity at 3 times antibacterial IC50 measured after 200 secs by sytox green-based fluorescence assay; format: functional, organism-based
[3] = (§1) Inhibition of Lactococcus lactis ATP-binding cassette transporter NisFEG harboring in Lactococcus lactis NZ9000 assessed as decrease in NisFEG induced resistance measured as increase in growth inhibition incubated for 5 hrs by optical density based plate reader assay
[4] = (§2) Inhibition of Lactococcus lactis Nis1 harboring in Lactococcus lactis NZ9000 assessed as decrease in Nis1 induced resistance measured as increase in growth inhibition incubated for 5 hrs by optical density based plate reader assay
[5] = Inhibition of Streptococcus agalactiae COH1 NSR transfected in Lactococcus lactis NZ9000 assessed as decrease in NSR-induced resistance by measuring increase in growth inhibition incubated for 5 hrs by optical density based plate reader assay
[6] = Inhibition of Streptococcus agalactiae COH1 NsrFP transfected in Lactococcus lactis NZ9000 assessed as decrease in NsrFP-induced resistance by measuring increase in growth inhibition incubated for 5 hrs by optical density based plate reader assay
[7] = as §2, with “Resistance ratio of IC50 for Inhibition” for “Inhibition”, “inhibition to IC50 for growth inhibition of nisin-sensitive Lactococcus lactis NZ9000Cm” for “inhibition”
[8] = as §1, with “Resistance ratio of IC50 for inhibition” for “Inhibition”, “inhibition to IC50 for growth inhibition of nisin-sensitive Lactococcus lactis NZ9000Cm” for “inhibition”
[9] = (§3) Resistance ratio of IC50 for inhibition of Streptococcus agalactiae COH1 NSR transfected in Lactococcus lactis NZ9000 assessed as decrease in NSR induced resistance measured as increase in growth inhibition to IC50 for growth inhibition of nisin-sensitive Lactococcus lactis NZ9000Cm incubated for 5 hrs by optical density based plate reader assay
[10] = as §3, with “NsrFP” for “NSR”
Lactococcus lactis [11] = assay: Induction of pore formation in Lactococcus lactis NZ9000Cm assessed as increase in florescence intensity at 3 times antibacterial IC50 measured after 200 secs by sytox green-based fluorescence assay relative to control; format: functional

## C=C(NC(=O)[C@@H](NC(=O)[C@H](Cc1cnc[nH]1)NC(=O)[C@@H](NC(=O)[C@H](CO)NC(=O)[C@@H]1CS[C@@H](C)[C@@H]2NC(=O)[C@H](C)NC(=O)[C@@H](NC(=O)[C@@H](NC(=O)[C@@H](NC(=O)[C@H](CCCCN)NC(=O)[C@H](CCSC)NC(=O)[C@H](CC(N)=O)NC(=O)[C@@H]3CS[C@@H](C)[C@H](NC(=O)[C@H](CCCCN)NC(=O)[C@@H]4CS[C@@H](C)[C@H](NC(=O)[C@@H]5CSC[C@H](NC(=O)/C(=C/C)NC(=O)[C@@H](N)[C@@H](C)CC)C(=O)N[C@@H]([C@@H](C)CC)C(=O)NC(=C)C(=O)N[C@@H](CC(C)C)C(=O)N5)C(=O)N5CCC[C@H]5C(=O)NCC(=O)N4)C(=O)NCC(=O)N[C@@H](C)C(=O)N[C@@H](CC(C)C)C(=O)N[C@@H](CCSC)C(=O)NCC(=O)N3)[C@@H](C)CC)C(C)C)[C@H](C)SC[C@H](NC2=O)C(=O)N[C@@H](Cc2cnc[nH]2)C(=O)N1)[C@@H](C)CC)C(C)C)C(=O)N[C@@H](CCCCN)C(=O)O
Lactococcus lactis [1]
  IC50: 22.3 nM
Lactococcus lactis [2]
  Activity: Active
[3]
  IC50: 36.9 nM
[4]
  IC50: 73.2 nM
[5]
  IC50: 64.8 nM
[6]
  IC50: 44.4 nM
[7]
  Ratio IC50: 3.29
[8]
  Ratio IC50: 1.66
[9]
  Ratio IC50: 2.91
[10]
  Ratio IC50: 1.99

## C=C(NC(=O)[C@@H](NC(=O)[C@H](Cc1cnc[nH]1)NC(=O)[C@@H](NC(=O)[C@H](CO)NC(=O)[C@@H]1CS[C@@H](C)[C@@H]2NC(=O)[C@H](C)NC(=O)[C@@H](NC(=O)[C@H](CCCCN)NC(=O)[C@H](CCSC)NC(=O)[C@@H](NC(=O)[C@@H](NC(=O)[C@H](CC(N)=O)NC(=O)[C@@H]3CS[C@@H](C)[C@H](NC(=O)[C@H](CCCCN)NC(=O)[C@@H]4CS[C@@H](C)[C@H](NC(=O)[C@@H]5CSC[C@H](NC(=O)/C(=C/C)NC(=O)[C@@H](N)[C@@H](C)CC)C(=O)N[C@@H]([C@@H](C)CC)C(=O)NC(=C)C(=O)N[C@@H](CC(C)C)C(=O)N5)C(=O)N5CCC[C@H]5C(=O)NCC(=O)N4)C(=O)NCC(=O)N[C@@H](C)C(=O)N[C@@H](CC(C)C)C(=O)N[C@@H](CCSC)C(=O)NCC(=O)N3)[C@@H](C)CC)C(C)C)[C@H](C)SC[C@H](NC2=O)C(=O)N[C@@H](Cc2cnc[nH]2)C(=O)N1)[C@@H](C)CC)C(C)C)C(=O)N[C@@H](CCCCN)C(=O)O
Lactococcus lactis [1]
  IC50: 8.17 nM
Lactococcus lactis [11]
  Activity: 15%
[3]
  IC50: 107 nM
[4]
  IC50: 77.3 nM
[5]
  IC50: 102 nM
[6]
  IC50: 121 nM
[7]
  Ratio IC50: 9.46
[8]
  Ratio IC50: 13.1
[9]
  Ratio IC50: 12.4
[10]
  Ratio IC50: 14.8

## C=C(NC(=O)[C@@H](NC(=O)[C@H](Cc1cnc[nH]1)NC(=O)[C@@H](NC(=O)[C@H](CO)NC(=O)[C@@H]1CS[C@@H](C)[C@@H]2NC(=O)[C@H](C)NC(=O)[C@@H](NC(=O)[C@H](CC(N)=O)NC(=O)[C@@H]3CS[C@@H](C)[C@H](NC(=O)[C@H](CCCCN)NC(=O)[C@@H]4CS[C@@H](C)[C@H](NC(=O)[C@@H]5CSC[C@H](NC(=O)/C(=C/C)NC(=O)[C@@H](N)[C@@H](C)CC)C(=O)N[C@@H]([C@@H](C)CC)C(=O)NC(=C)C(=O)N[C@@H](CC(C)C)C(=O)N5)C(=O)N5CCC[C@H]5C(=O)NCC(=O)N4)C(=O)NCC(=O)N[C@@H](C)C(=O)N[C@@H](CC(C)C)C(=O)N[C@@H](CCSC)C(=O)NCC(=O)N3)[C@H](C)SC[C@H](NC2=O)C(=O)N[C@@H](Cc2cnc[nH]2)C(=O)N1)[C@@H](C)CC)C(C)C)C(=O)N[C@@H](CCCCN)C(=O)O
Lactococcus lactis [1]
  IC50: 43.4 nM
Lactococcus lactis [2]
  Activity: inactive
[3]
  IC50: 72.1 nM
[4]
  IC50: 109 nM
[5]
  IC50: 221 nM
[6]
  IC50: 213 nM
[7]
  Ratio IC50: 2.5
[8]
  Ratio IC50: 1.66
[9]
  Ratio IC50: 5.09
[10]
  Ratio IC50: 4.9

Source: ChEMBL document CHEMBL4393732, “Influence of nisin hinge-region variants on lantibiotic immunity and resistance proteins” (Bioorg Med Chem, 2019)
